{"source": "patent US8802691B2", "about": "(priority 2009, dated 2014)", "key": {"[1]": {"test_system": "canine Leishmaniosis", "details": "conventional treatments monitored by serology, bibliography, cited from earlier work"}, "[2]": {"test_system": "prolactine hormone", "details": "for Tmax of prolactine (time to maximum prolactine concentration), mean: male dog, serum", "procedure": "During each of the 7 phases blood samples were extracted at different times (t=0 h, 0.5 h, 1 h, 2 h, 4 h, 6 h, 8 h, 10 h, 12 h, 18 h, 36 y 48 h) for determining serum concentrations of prolactine using a commercial immuno enzymatic assay kit."}, "[3]": {"test_system": "monocytes", "test": "NBT reduction test in whole blood of healthy dogs: activated monocytes", "type": "in vivo, dog", "procedure": "(§1) 20 dogs of different breed, sex and age, were randomly distributed into two groups of 10. […] During the study several visits were paid (days 0, 15, 30, 60 and 90) during which some clinical examinations were done and blood samples were collected for biochemical, haemathological and serological analyses (DAT). The percentages of activated monocytes and neutrophils were determined in whole blood samples through the nitroblue tetrazolium (NBT) reduction test."}, "[4]": {"test_system": "neutrophils", "test": "NBT reduction test in whole blood of healthy dogs: activated neutrophils", "type": "in vivo, dog", "procedure": "as §1"}, "[5]": {"test_system": "Leishmania infantum", "test": "Circulating monocyte-derived macrophages from treated healthy dogs, in vitro infection with Leishmania infantum promastigotes", "type": "cell-based", "description": "It is designed as a prospective monocentric study. A total of 10 dogs have been included, each of them acting as its own control, for which reason it has not been considered necessary the use of a negative control. […] During the study several visits are paid the days 0 (basal), 15 and 30 of treatment, and days 60 and 90 (one and two months after finishing the treatment, respectively). During each visit blood is collected from animals and it is processed to isolate and culture monocytes-macrophages, which are then co-cultivated with Leishmania promastigotes. After 48 hours the nitroblue tetrazolium (NBT) reduction test is carried out on the cultures and the percentage of parasited macrophages and the number of amastigotes per macrophage were measured. Blood samples are also collected on days 0 and 90 to assess animal health by biochemical and haemathological analyses."}, "[6]": {"test_system": "canine Leishmaniosis", "test": "Controlled study of a domperidone treatment plan in seronegative dogs in an endemic area (Example 5)", "type": "in vivo, dog", "details": "treated group n = 120, two 30-day treatments at 0.5 mg/kg/day oral", "description": "The study lasted for 9 months, beginning at the onset of the activity period of the vector insect in the geographical area in which animals were found and closing three months after the end of this period. The presence of the vector was confirmed before starting the treatment.\nThe remaining 120 animals received a placebo under an equivalent dosage regime."}, "[7]": {"test_system": "canine Leishmaniosis", "test": "Clinical study of Domperidone alone in dogs with initial stage Leishmaniosis (Example 6)", "type": "in vivo, dog", "details": "for percentage of dogs with antibody titre lower than DAY 0: oral 1 mg/kg/12 h (<30 kg) or 0.7 mg/kg/12 h for 30 days, 70 dogs", "procedure": "A clinical study was performed including a group of 70 dogs with an initial stage of Leishmaniosis (antibody titre against Leishmania between 1/800 and 1/1600-threshold of positively 1/800-and oligosymptomatics).\n[…] During said controls different immunological (antibody titre against Leishmania-DAT, intradermoreaction test-Leishmanina), clinical (clinical symptoms, body weight) and analytical (biochemical profile, haematology, proteinogram and urine test for the determination of UPC ratio) parameters were assessed."}, "[8]": {"test_system": "canine Leishmaniosis"}, "[9]": {"test_system": "L. Infantum", "details": "2 mg/kg/day, dogs infected with L. Infantum, ES 2246142; cited from earlier work"}, "[10]": {"details": "Day 0 (before treatment), 0.5 mg/kg/day oral for 30 days, healthy dogs n = 10"}, "[11]": {"details": "Day 15, 0.5 mg/kg/day oral for 30 days, healthy dogs n = 10"}, "[12]": {"details": "Day 30, 0.5 mg/kg/day oral for 30 days, healthy dogs n = 10"}, "[13]": {"details": "Day 90 (60 days after end of treatment), 0.5 mg/kg/day oral for 30 days"}, "[14]": {"details": "sample of Day 0 (basal), dogs given 0.5 mg/kg/day oral for 30 days"}, "[15]": {"details": "sample of Day 15, dogs given 0.5 mg/kg/day oral for 30 days"}, "[16]": {"details": "sample of Day 30, dogs given 0.5 mg/kg/day oral for 30 days"}, "[17]": {"details": "sample of Day 60 (one month after end of treatment)"}, "[18]": {"details": "sample of Day 90 (two months after end of treatment)"}}, "note": "Where two headings read alike, the source gives them in different places."}
{"compound": "Oc1ncnc2[nH]ncc12", "note": "[Alopurinol]", "values": [{"measurement": "time after onset of treatment until decrease in the antibody titre against Leishmania is observed", "setting": "[1]", "result": "≥ 180", "unit": "days"}, {"measurement": "time after onset of treatment until decrease in the antibody titre against Leishmania is observed", "setting": "[1]; listed as alopurinol", "result": 180, "unit": "days"}]}
{"compound": "O=c1[nH]c2ccccc2n1CCCN1CCC(n2c(=O)[nH]c3cc(Cl)ccc32)CC1", "note": "[Domperidone]", "values": [{"measurement": "average concentrations of prolactine in the first 36 hours after administration versus placebo", "setting": "[2]; all six dosages 0.125-4 mg/kg, single oral dose", "result": "remained above the prolactine concentration in the group treated with the placebo"}, {"measurement": "Tmax of prolactine (time to maximum prolactine concentration), mean", "setting": "[2]; single oral dose 0.125 mg/kg", "result": 8.6, "unit": "h"}, {"measurement": "Tmax of prolactine (time to maximum prolactine concentration), mean", "setting": "[2]; single oral dose 0.250 mg/kg", "result": 7.2, "unit": "h"}, {"measurement": "Tmax of prolactine (time to maximum prolactine concentration), mean", "setting": "[2]; single oral dose 0.5 mg/kg", "result": 3.7, "unit": "h"}, {"measurement": "Tmax of prolactine (time to maximum prolactine concentration), mean", "setting": "[2]; single oral dose 1 mg/kg", "result": 2.7, "unit": "h"}, {"measurement": "Tmax of prolactine (time to maximum prolactine concentration), mean", "setting": "[2]; single oral dose 2 mg/kg", "result": 5.0, "unit": "h"}, {"measurement": "Tmax of prolactine (time to maximum prolactine concentration), mean", "setting": "[2]; single oral dose 4 mg/kg", "result": 4.6, "unit": "h"}, {"measurement": "percentage of activated monocytes, mean", "setting": "[3]; [10]", "result": 3.200, "unit": "%"}, {"measurement": "percentage of activated monocytes, mean", "setting": "[3]; [11]", "result": 26.10, "unit": "%"}, {"measurement": "percentage of activated monocytes, mean", "setting": "[3]; [12]", "result": 26.40, "unit": "%"}, {"measurement": "percentage of activated monocytes, mean", "setting": "[3]; Day 60 (30 days after end of treatment), 0.5 mg/kg/day oral for 30 days", "result": 8.600, "unit": "%"}, {"measurement": "percentage of activated monocytes, mean", "setting": "[3]; [13]", "result": 3.100, "unit": "%"}, {"measurement": "percentage of activated neutrophils, mean", "setting": "[4]; [10]", "result": 5.700, "unit": "%"}, {"measurement": "percentage of activated neutrophils, mean", "setting": "[4]; [11]", "result": 38.50, "unit": "%"}, {"measurement": "percentage of activated neutrophils, mean", "setting": "[4]; [12]", "result": 40.00, "unit": "%"}, {"measurement": "percentage of activated neutrophils, mean", "setting": "[4]; [13]", "result": 5.900, "unit": "%"}, {"measurement": "number of amastigotes per macrophage after 48 hours of in vitro co-culture with Leishmania infantum promastigotes, mean", "setting": "[5]; [14]", "result": 44.4}, {"measurement": "percentage of positive NBT macrophages after 48 hours of co-culture with Leishmania infantum promastigotes, mean", "setting": "[5]; [14]", "result": 2.00, "unit": "%"}, {"measurement": "number of amastigotes per macrophage after 48 hours of in vitro co-culture with Leishmania infantum promastigotes, mean", "setting": "[5]; [15]", "result": 9.7}, {"measurement": "percentage of positive NBT macrophages after 48 hours of co-culture with Leishmania infantum promastigotes, mean", "setting": "[5]; [15]", "result": 61.10, "unit": "%"}, {"measurement": "number of amastigotes per macrophage after 48 hours of in vitro co-culture with Leishmania infantum promastigotes, mean", "setting": "[5]; [16]", "result": 11.3}, {"measurement": "percentage of positive NBT macrophages after 48 hours of co-culture with Leishmania infantum promastigotes, mean", "setting": "[5]; [16]", "result": 62.20, "unit": "%"}, {"measurement": "number of amastigotes per macrophage after 48 hours of in vitro co-culture with Leishmania infantum promastigotes, mean", "setting": "[5]; [17]", "result": 23.1}, {"measurement": "percentage of macrophages infected after 48 hours of in vitro culture with Leishmania infantum promastigotes, mean", "setting": "[5]; [17]", "result": 82.6, "unit": "%"}, {"measurement": "percentage of positive NBT macrophages after 48 hours of co-culture with Leishmania infantum promastigotes, mean", "setting": "[5]; [17]", "result": 1.70, "unit": "%"}, {"measurement": "number of amastigotes per macrophage after 48 hours of in vitro co-culture with Leishmania infantum promastigotes, mean", "setting": "[5]; [18]", "result": 42.6}, {"measurement": "percentage of macrophages infected after 48 hours of in vitro culture with Leishmania infantum promastigotes, mean", "setting": "[5]; [18]", "result": 89.5, "unit": "%"}, {"measurement": "percentage of positive NBT macrophages after 48 hours of co-culture with Leishmania infantum promastigotes, mean", "setting": "[5]; [18]", "result": 1.80, "unit": "%"}, {"measurement": "animals with seropositivity against Leishmania (DAT≧1/400) at the end of the study", "setting": "[6]", "result": 0, "unit": "%"}, {"measurement": "animals showing clinical symptoms indicative of adverse reactions attributable to the medication", "setting": "[6]; 9 months", "result": "None"}, {"measurement": "Animals WITH signs of canine Leishmaniosis, accumulated percentage", "setting": "[6]; end of study (9th month)", "result": 0, "unit": "%"}, {"measurement": "Animals WITHOUT signs of canine Leishmaniosis, accumulated percentage", "setting": "[6]; end of study (9th month)", "result": 100, "unit": "%"}, {"measurement": "percentage of dogs with antibody titre lower than DAY 0", "setting": "[7]; DAY 30", "result": 10, "unit": "%"}, {"measurement": "percentage of dogs with antibody titre lower than DAY 0", "setting": "[7]; DAY 90", "result": 47, "unit": "%"}, {"measurement": "percentage of dogs with antibody titre lower than DAY 0", "setting": "[7]; DAY 180", "result": 57, "unit": "%"}, {"measurement": "animals with total disappearance of clinical symptoms (mainly lymphadenopathy)", "setting": "[7]; in the course of the 12 months after the onset of the treatment", "result": 100, "unit": "%"}, {"measurement": "Animals WITH signs of canine Leishmaniosis, accumulated percentage", "setting": "[8]; 0.5 mg/kg, 720 h", "result": 11, "unit": "%"}, {"measurement": "Animals WITHOUT signs of canine Leishmaniosis, accumulated percentage", "setting": "[8]; 0.5 mg/kg, 720 h", "result": 85, "unit": "%"}, {"measurement": "Animals WITH signs of canine Leishmaniosis, accumulated percentage", "setting": "[8]; treated group n = 45, 0.5 mg/kg/day for 30 days each four months, end of study (second year), highly endemic area", "result": 11, "unit": "%"}, {"measurement": "effect on clinical signs of Leishmaniosis and level of antibodies", "setting": "[9]", "result": "able to reduce the clinical signs of Leishmaniosis and/or to reduce the level of antibodies in infected animals"}]}
